The record followed here is PubChem BioAssay (NCI).

Holding throughout (assay): growth of human tumour cells (NCI), 48 h
For assay [1], the system named is OVCAR-5 ovarian.
The test system of assay [2] is EKVX NSCLC.
Assay [3] has as its system SNB-75 CNS.
Assay [4] has as its system RXF 393 renal.
The test system of assay [5] is M14 melanoma.
Assay [6] deals with SW-620 colon.
The test system of assay [7] is HL-60(TB) leukemia.
In assay [8] the test system is SR leukemia.
In assay [9] the test system is CAKI-1 renal.

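Cells were grown in 96-well plates and exposed to each compound for 48 hours at five concentrations; endpoints were interpolated linearly between bracketing concentrations, or set to the highest concentration if not reached. Abbreviation: GI50, concentration required for 50% inhibition of growth. TGI: concentration producing complete growth inhibition.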 Bounds are passed on as bounds.

On to `C=C1C(=O)O[C@H]2[C@H]1CC/C(CNC(=O)/C=C/c1ccc(Cl)cc1Cl)=C\CC[C@@]1(C)O[C@@H]21`, for which the GI50 is 1.85 µM in [1]; 1.55 µM in assay [2]; 1.74 µM in assay [3]; 0.403 µM in [4]; 1.44 µM in assay [5]; 1.28 µM in [6]. The GI50 in [7] was 0.0256 µM; in assay [8], 0.232 µM; in [9] it was 0.759 µM. For the same compound, the TGI turned out to be 4.1 µM in assay [1]; 3.1 µM in [2]; 10.3 µM in assay [3]; 1.63 µM in [4]; 3.37 µM in assay [5]; 2.68 µM in assay [6]. Also, the TGI in assay [7] was found to be 0.542 µM; in assay [8] it was 1.89 µM; in assay [9] it was 2.16 µM.
For the compound `COc1cc2c(Cc3cc(OCc4ccccc4)ccc3N)nccc2c(OC)c1OC`, the TGI in assay [1], in assay [2], in [3], in assay [4], in assay [5] and in [6] was over 10 µM in each case. The TGI in assay [7] and in assay [8] was over 10 µM in each case.
For `CC1=C(C(=O)Nc2ccccc2C)C(c2ccccc2C)C(C(=O)Nc2ccccc2C)=C(C)N1`, the TGI in assay [1] stood at 66.3 µM; in assay [2], 42.3 µM; in assay [3], 59.2 µM; in [4], 26.2 µM; in [6], 36.2 µM; in assay [7] it was 46.5 µM. This compound also displayed a TGI in assay [8] of 65.4 µM.
For `COC(=O)C1C(/C=C/c2ccoc2)ON2CCC[C@@H]12` (stereo partly drawn), the TGI in assay [1], in assay [2], in assay [3], in assay [4], in assay [5] and in [6] was over 100 µM in each case. In addition, the TGI in assay [7], in [8] and in assay [9] was over 100 µM throughout.
With `O=c1[nH]cnc2c1ncn2CCCCO`, the TGI in [1], in assay [2], in [3], in assay [4], in assay [5] and in [6] was over 100 µM each time. Moreover, the TGI in assay [7], in [8] and in assay [9] was over 100 µM each time.
`NS(=O)(=O)c1ccc(NC(=O)c2cccc3c(Nc4ccc(S(N)(=O)=O)cc4)c4ccccc4nc23)cc1`: the TGI in assay [1], in assay [2], in [3], in [4], in assay [5] and in assay [6] was over 100 µM throughout. Moreover, the TGI in assay [7] is 96.8 µM; in assay [9], over 100 µM.
Turning to `O=S(=O)(N/N=C/c1ccc(Cl)cc1Cl)c1ccccc1`, the TGI in assay [1], in assay [2], in [3], in [4], in assay [5] and in [6] was over 100 µM in each case. In addition, the TGI was 56.9 µM in [7], over 100 µM in [8] and over 100 µM in assay [9].
For the compound `COc1ccc(/C=N\O[Si](C)(C)C(C)(C)C)cc1O[Si](C)(C)C(C)(C)C`, the TGI was determined as 39 µM in assay [1]; 41.6 µM in assay [2]; 37.1 µM in assay [3]; 28.4 µM in assay [4]; 36.3 µM in assay [5]; 36.9 µM in assay [6]. Moreover, the figures for the TGI in assay [7] and in assay [9] were 38.1 µM and 40.2 µM, respectively.
Regarding `O=c1cc(-c2ccc(O)cc2)oc2cc(O)cc(O)c12`, the TGI is 68 µM in [1]; 96.9 µM in [2]; 43.7 µM in assay [3]; over 100 µM in assay [5]; over 100 µM in assay [7]; over 100 µM in assay [8].
Turning to `CCOC(=O)C1Oc2ccc([N+](=O)[O-])cc2C1(C)O` (stereo not drawn), the TGI in assay [1], in assay [2], in [3], in assay [4], in assay [5] and in assay [6] was over 100 µM in each case. The TGI in assay [7] and in assay [8] was over 100 µM in each case.
Regarding `CCOC(=O)/C=C1\Oc2ccccc2C1(C)O` (stereo not drawn), the TGI in assay [1], in [2], in assay [3], in assay [4], in [5] and in assay [6] was over 100 µM throughout. In addition, the TGI in assay [7], in assay [8] and in [9] was over 100 µM in each case.
As for `Cc1cccc(N=C2NC(=O)C(CC(=O)Nc3ccccc3Cl)S2)c1` (stereo not drawn), the TGI in [1], in [2], in assay [3], in assay [4], in assay [5] and in [6] was over 100 µM each time. Moreover, the TGI in assay [7], in [8] and in [9] was over 100 µM each time.
Regarding `O=C(CC(=O)c1ccccc1)C(=O)NC12CC3CC(CC(C3)C1)C2`, the TGI was over 100 µM in [1]; over 100 µM in [2]; over 100 µM in assay [3]; over 47.3 µM in assay [4]; over 100 µM in assay [5]; over 58.7 µM in assay [6]. Moreover, the figures for the TGI in assay [7], in assay [8] and in assay [9] were over 69.1 µM, over 100 µM and over 100 µM, respectively.
For the compound `NNC(=S)N/N=C(/C(=O)Nc1ccc([N+](=O)[O-])cc1)c1nc2ccc([N+](=O)[O-])cc2[nH]c1=O`, the TGI in assay [1], in assay [2], in assay [3], in assay [5], in [6] and in assay [7] was over 100 µM each time. In addition, the TGI in assay [8] and in assay [9] was over 100 µM in each case.
For the compound `COc1ccc(/C(C#N)=C(/N)SCc2ccccc2Cl)cc1`, the TGI in assay [1] worked out at 32.9 µM; in [2] it was 48.2 µM; in [3], 63.6 µM; in assay [4], 30.9 µM; in assay [5], 27.8 µM; in [6], 29.7 µM. Further, the TGI is 63.4 µM in [7] and over 100 µM in [8].
